Assay results: patent publication US20060057154A1, “Compositions for inducing of immunotolerance” (Universiteit Utrecht Holding B.V., priority 2003, published 2006)

Assays:
[1] = system: OVA-sensitized BALB/c mice; experiment: Airway responsiveness to methacholine in vivo (whole-body plethysmography, Penh) in mouse model of allergic asthma; set-up: species or system mouse (BALB/c)
Description: (§1) Animals. Animal care and use were performed in accordance with the guidelines of the Dutch Committee of Animal Experiments. Specific pathogen-free male BALB/c mice (5 to 6 weeks old) were purchased from Charles River (Maastricht, The Netherlands) and housed in macrolon cages in a laminar flow cabinet and provided with food and water ad libitum.
Sensitization, treatment and challenge. Mice (6 to 8 weeks old) were sensitized intraperitoneally (i.p.) on days 0 and 7 with 10 μg ovalbumin (OVA, grade V, Sigma-Aldrich) in 0.1 ml alum (Pierce, Rockford, Ill.). Two weeks after the last sensitization, the mice were divided into six groups. The sham-immunotherapy and the OVA-immunotherapy groups were treated with three s.c. injections of, respectively, 0.2 ml pyrogen-free saline (B. Braun, Melsungen, Germany) or 1 mg OVA in 0.2 ml pyrogen-free saline on alternate days. In three groups, OVA-immunotherapy was co-injected with 0.1 μg, 0.03 μg or 0.01 μg 1α,25-dihydroxyvitamin D3 (1α,25(OH)2 VitD3), a selective inhibitor of NF-κb. […]
Measurement of airway responsiveness in vivo. Airway responsiveness to methacholine was measured after treatment but before OVA challenge (pre-measurement) and 24 hours after the last OVA challenge. Airway responsiveness was measured in conscious, unrestrained mice using barometric whole-body plethysmography by recording respiratory pressure curves (Buxco, EMKA Technologies, Paris, France) in response to inhaled methacholine (acetyl-β-methylcholine chloride, Sigma-Aldrich). […] Briefly, mice were placed in a whole-body chamber and basal readings were determined for three minutes. Aerosolized saline, followed by doubling concentrations of methacholine (ranging from 3.13-25 mg/ml in saline), were nebulized for three minutes, and readings were determined for three minutes after each nebulization.
Statistical analysis. All data are expressed as mean±standard error of mean (SEM). The airway dose-response curves to methacholine were statistically analyzed by a general linear model of repeated measurements followed by post-hoc comparison between groups. […]

[2] = system: OVA-sensitized BALB/c mice; experiment: OVA-specific IgE levels in serum (sandwich ELISA) in mouse model of allergic asthma; assay type: in vivo, mouse (BALB/c)
Description: as §1
(§2) Sensitization, treatment and challenge. Mice (6 to 8 weeks old) were sensitized intraperitoneally (i.p.) on days 0 and 7 with 10 μg ovalbumin (OVA, grade V, Sigma-Aldrich) in 0.1 ml alum (Pierce, Rockford, Ill.). Two weeks after the last sensitization, the mice were divided into six groups. The sham-immunotherapy and the OVA-immunotherapy groups were treated with three s.c. injections of, respectively, 0.2 ml pyrogen-free saline (B. Braun, Melsungen, Germany) or 1 mg OVA in 0.2 ml pyrogen-free saline on alternate days. In three groups, OVA-immunotherapy was co-injected with 0.1 μg, 0.03 μg or 0.01 μg 1α,25-dihydroxyvitamin D3 (1α,25(OH)2 VitD3), a selective inhibitor of NF-κb. One group was treated with sham-immunotherapy and combined with co-injection of 0.1 μg 1α,25(OH)2 VitD3. Ten days after treatment, mice were exposed to three OVA inhalation challenges (10 mg/ml in saline) for 20 minutes every third day.
Determination of OVA-specific IgE levels in serum. From each mouse, serum was obtained after treatment but before OVA challenge (pre-measurement) by a small incision in the tail vein. After measurement of airway responsiveness in vivo, mice were sacrificed by i.p. injection of 1 ml 10% urethane in saline and were bled by cardiac puncture. […] Serum levels of OVA-specific IgE were measured by sandwich ELISA as described previously (Deurloo et al., 2001).
Statistical analysis. All data are expressed as mean±standard error of mean (SEM). The airway dose-response curves to methacholine were statistically analyzed by a general linear model of repeated measurements followed by post-hoc comparison between groups. […] All other data were analyzed using a Student's t test (2-tailed, homosedastic). […]

[3] = system: OVA-sensitized BALB/c mice; experiment: Cellular composition of bronchoalveolar lavage fluid (eosinophil number) in mouse model of allergic asthma; assay type: in vivo, mouse (BALB/c)
Description: as §1, §2
In a second series of experiments, OVA-immunotherapy, as described above, was carried out using a sub-optimal amount of 100 μg OVA in saline for OVA-immunotherapy. OVA-immunotherapy was either given alone or in combination with 0.01 μg 1α,25(OH)2 VitD3. Sham-immunotherapy alone or in combination with 0.01 μg 1α,25(OH)2 VitD3 served as control groups.
Analysis of the cellular composition of the bronchoalveolar lavage fluid. Bronchoalveolar lavage (BAL) was performed immediately after bleeding of the mice by lavage of the airways through a tracheal cannule five times with 1 ml saline (37° C.). Cells in the BALF were centrifuged and resuspended in cold PBS. The total number of cells in the BAL was determined using a Bürker-Türk counting chamber (Karl Hecht Assistant KG, Sondheim/Röhm, Germany). For differential BAL cell counts, cytospin preparations were made (15×g, five minutes, 4° C., Kendro Heraues Instruments, Asheville, N.C.). Next, cells were fixed and stained with Diff-Quick (Dade A. G., Düdingen, Switzerland). Per cytospin, 200 cells were counted and differentiated into mononuclear cells, eosinophils, and neutrophils by standard morphology and staining characteristics.
Statistical analysis. All data are expressed as mean±standard error of mean (SEM). The airway dose-response curves to methacholine were statistically analyzed by a general linear model of repeated measurements followed by post-hoc comparison between groups. Data were log transformed before analysis to equalize variances in all groups. All other data were analyzed using a Student's t test (2-tailed, homosedastic). Results were considered statistically significant at the p<0.05 level.

[4] = co-injection of 0.01 μg with OVA-immunotherapy (1 mg OVA), compared to OVA-immunotherapy alone

Compound	AHR to methacholine after OVA inhalation challenge ([1]; co-injection of 0.1 μg with sham-immunotherapy (saline))	AHR to methacholine after OVA inhalation challenge ([1]; co-injection s.c. of 0.1, 0.03 or 0.01 μg (all doses used) with OVA-immunotherapy (1 mg OVA), compared to OVA-IT alone, P<0.05)	Serum levels of OVA-specific IgE after OVA inhalation challenge [2, 4]	Serum levels of OVA-specific IgE after OVA inhalation challenge ([2]; co-injection of 0.1 μg with sham-immunotherapy, compared to sham-immunotherapy alone)	Number of BALF eosinophils after OVA inhalation challenge [3, 4]	Number of BALF eosinophils after OVA inhalation challenge ([3]; first series, co-injection of 0.1 μg with sham-immunotherapy)	Number of BALF eosinophils after OVA inhalation challenge ([3]; second series, co-injection of 0.01 μg with sham-immunotherapy)	Number of BALF eosinophils after OVA inhalation challenge ([3]; second series, co-injection of 0.01 μg with sub-optimal OVA-immunotherapy (100 μg OVA), compared to OVA-immunotherapy alone)	AHR to methacholine after OVA inhalation challenge ([1]; OVA-immunotherapy alone (3 s.c. injections of 1 mg OVA), compared to sham-treated mice, P<0.05)	Serum levels of OVA-specific IgE after OVA inhalation challenge ([2]; OVA-immunotherapy alone (1 mg OVA), compared to sham-treated OVA-challenged mice)	Number of BALF eosinophils after OVA inhalation challenge ([3]; OVA-immunotherapy alone (1 mg OVA), compared to sham-treated mice)	Number of BALF eosinophils after OVA inhalation challenge ([3]; second series, sub-optimal OVA-immunotherapy alone (100 μg OVA), compared to sham-treated mice)
C=C1/C(=C\C=C2/CCC[C@]3(C)[C@@H]([C@H](C)CCCC(C)(C)O)CC[C@@H]23)C[C@@H](O)C[C@@H]1O [1α,25(OH)2 VitD3, 1α,25-dihydroxyvitamin D3]	did not affect AHR	significantly potentiated the reduction of AHR to methacholine	significantly increased the reduction of serum IgE levels	did not affect serum IgE levels	significantly increased the reduction of BALF eosinophil numbers	did not significantly affect BAL eosinophil number	did not significantly affect BAL eosinophil number	significantly increased the reduction of BALF eosinophil numbers				
OVA-immunotherapy: three s.c. injections of 1 mg (or sub-optimal 100 μg) ovalbumin (OVA, grade V) in pyrogen-free saline on alternate days									partially reduced	significantly reduced	significantly reduced	significantly reduced
